Common to all, as to type: cell-based
The test system of assay [1] is HepG2 (liver cancer). The assay is described as follows: Antiproliferative activity (CCK-8 cell viability), HepG2. The following applies: Homo sapiens, 72 h; for inhibition at 3.3 µM: Compound concentration: 3.3 μM; for inhibition at 3.3 µM / inhibition at 10 µM: read-out: Antiproliferative activity in cancerous cells, HepG2 (inhibition of cell growth); for inhibition at 10 µM: Compound concentration: 10 μM. In short, it runs like this:
(§1)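 Cells were seeded at 2,000-5,000/well (HeLa in MEM, HepG2 and SW480 in DMEM, A549 in F-12K, all with 10% FBS) and treated with compound at 3.3, 10 or 30 μM for 72 h at 37° C. CCK-8 was added for 4 h, absorbance was read at 450 nm, and viability was expressed relative to DMSO-treated wells.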

In assay [2] the test system is HeLa (cervical cancer). Put plainly: Antiproliferative activity (CCK-8 cell viability), HeLa. The following applies: Homo sapiens, 72 h, read-out: Antiproliferative activity in cancerous cells, HELA (inhibition of cell growth); for inhibition at 3.3 µM: Compound concentration: 3.3 μM; for inhibition at 10 µM: Compound concentration: 10 μM. The method, boiled down: as §1

Assay [3] deals with A431 (epidermoid carcinoma). The assay is described as follows: Antiproliferative activity (CCK-8 cell viability), A431. The following applies: Homo sapiens, 72 h; for inhibition at 3.3 µM: A-431, Compound concentration: 3.3 μM; for inhibition at 3.3 µM / inhibition at 10 µM: read-out: Antiproliferative activity in cancerous cells, A431 (inhibition of cell growth); for inhibition at 10 µM: A-431, Compound concentration: 10 μM. The method, boiled down:
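Cell viability of compound-treated A431 cells was measured with a Cell Counting Kit-8. Each well received 10 μL of CCK-8 after 72 h of compound exposure, followed by 4 h incubation at 37° C. and a 450 nm plate-reader measurement. Percent viability was calculated relative to DMSO controls across replicates.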

Assay [4] relates to SW480 (colon cancer). Put plainly: Antiproliferative activity (CCK-8 cell viability), SW480. The following applies: Homo sapiens, 72 h; for inhibition at 3.3 µM: Compound concentration: 3.3 μM; for inhibition at 3.3 µM / inhibition at 10 µM: read-out: Antiproliferative activity in cancerous cells, SW480 (inhibition of cell growth); for inhibition at 10 µM: Compound concentration: 10 μM. In short, it runs like this:
as §1

In assay [5] the test system is MDA-MB-231 (breast cancer). The assay is described as follows: Antiproliferative activity (CCK-8 cell viability), MDA-MB-231. Particulars: Homo sapiens, 72 h; for inhibition at 3.3 µM: Compound concentration: 3.3 μM; for inhibition at 3.3 µM / inhibition at 10 µM: read-out: Antiproliferative activity in cancerous cells, MDA-MB-231 (inhibition of cell growth); for inhibition at 10 µM: Compound concentration: 10 μM; for inhibition at 30 µM: Compound concentration: 30 μM, read-out: Antiproliferative activity in cancerous cells, MDA-MB-231. In short, it runs like this: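 In this CCK-8 viability assay, MDA-MB-231 cells maintained in Dulbecco's modified Eagle's medium containing 10% fetal bovine serum were placed in 96-well plates (2,000-5,000 cells/well) and treated with compound for 72 h at 37° C. A 4 h incubation with 10 μL CCK-8 followed, plates were read at 450 nm, and viability was expressed against DMSO vehicle wells across replicates.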

For assay [6], the system named is B16F10 (malignant melanoma). The assay is described as follows: Antiproliferative activity (CCK-8 cell viability), B16F10. The following applies: Mus musculus, 72 h; for inhibition at 3.3 µM: B16-F10, Compound concentration: 3.3 μM; for inhibition at 3.3 µM / inhibition at 10 µM: read-out: Antiproliferative activity in cancerous cells, B16F10 (inhibition of cell growth); for inhibition at 10 µM: B16-F10, Compound concentration: 10 μM. In short, it runs like this:
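Attached B16F10 cells in 96-well plates were incubated with compound at 37° C for 72 h, followed by 10 μL CCK-8 reagent per well and a further 4 h incubation. A multi-well plate reader measured absorbance at 450 nm. Percent viability across replicates was calculated against DMSO vehicle-treated cells.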

Assay [7] relates to A549 (lung adenocarcinoma). Put plainly: Antiproliferative activity (CCK-8 cell viability), A549. The following applies: Homo sapiens, 72 h; for inhibition at 3.3 µM: Compound concentration: 3.3 μM; for inhibition at 3.3 µM / inhibition at 10 µM: read-out: Antiproliferative activity in cancerous cells, A549 (inhibition of cell growth); for inhibition at 10 µM: Compound concentration: 10 μM. The method, boiled down:
as §1

Bounds are passed on as bounds.

As for `CC1=C(CC(=O)O)c2cc(Cl)c(Cl)cc2/C1=C\c1ccc(Oc2ccc(F)cc2)cc1` [C83, (Z)-2-(5,6-Dichloro-1-(4-(4-fluorophenoxy)benzylidene)-2-methyl-1H-inden-3-yl)acetic acid], the inhibition at 3.3 µM was under 30% in assay [1]; at least 50% in assay [2]; at least 50% in assay [3]; at least 50% in assay [4]; at least 50% in assay [5]; at least 50% in assay [6]. The inhibition at 3.3 µM in assay [7] was at least 50%. Also, the inhibition at 10 µM in assay [1], in assay [2], in assay [3], in assay [4], in assay [5] and in assay [6] was at least 50% throughout. Besides, the inhibition at 10 µM in assay [7] is at least 50%.
Regarding `CC1=C(CC(=O)O)c2cc(Cl)ccc2/C1=C\c1ccc(Oc2ccc(C(C)C)cc2)cc1` [C84, (Z)-2-(5-Chloro-1-(4-(4-isopropylphenoxy)benzylidene)-2-methyl-1H-inden-3-yl)acetic acid], the inhibition at 3.3 µM in assay [1], in assay [2], in assay [3], in assay [4], in assay [5] and in assay [6] was at least 50% throughout. In assay [7], the inhibition at 3.3 µM was at least 50%. Further, the inhibition at 10 µM in assay [1], in assay [2], in assay [3], in assay [4], in assay [5] and in assay [6] was at least 50% throughout. In addition, in assay [7], the inhibition at 10 µM was at least 50%.
In the case of `CCc1ccc(Oc2ccc(/C=C3/C(C)=C(CC(=O)O)c4cc(Cl)ccc43)cc2)cc1` [C85, (Z)-2-(5-Chloro-1-(4-(4-ethylphenoxy)benzylidene)-2-methyl-1H-inden-3-yl)acetic acid], the inhibition at 3.3 µM in assay [1] was at least 50%; in assay [2] it was at least 50%; in assay [3], at least 50%; in assay [4], under 30%; in assay [5], at least 50%; in assay [6] it was 30 to 50%. Also, in assay [7], the inhibition at 3.3 µM is under 30%. Moreover, the inhibition at 10 µM in assay [1], in assay [2], in assay [3], in assay [4], in assay [5] and in assay [6] was at least 50% throughout. Besides, the inhibition at 10 µM in assay [7] is at least 50%.
With `CC1=C(CC(=O)O)c2cc(Br)ccc2/C1=C\c1ccc(Oc2ccc(F)cc2)cc1` [C86, (Z)-2-(5-Bromo-1-(4-(4-fluorophenoxy)benzylidene)-2-methyl-1H-inden-3-yl)acetic acid], the inhibition at 3.3 µM in assay [1] is under 30%; in assay [2], under 30%; in assay [3], 30 to 50%; in assay [4], under 30%; in assay [5] it was under 30%; in assay [6], under 30%. In addition, the inhibition at 3.3 µM in assay [7] was under 30%. Also, the inhibition at 10 µM in assay [1] was under 30%; in assay [2], under 30%; in assay [3] it was 30 to 50%; in assay [4], under 30%; in assay [5] it was under 30%; in assay [6] it was 30 to 50%. The inhibition at 10 µM in assay [7] is under 30%. For the same molecule, the inhibition at 30 µM is under 30% in assay [1] (Compound concentration: 30 μM, read-out: Antiproliferative activity in cancerous cells, HepG2); 30 to 50% in assay [3] (A-431, Compound concentration: 30 μM, read-out: Antiproliferative activity in cancerous cells, A431); under 30% in assay [4] (Compound concentration: 30 μM, read-out: Antiproliferative activity in cancerous cells, SW480); under 30% in assay [5]; 30 to 50% in assay [6] (B16-F10, Compound concentration: 30 μM, read-out: Antiproliferative activity in cancerous cells, B16F10); under 30% in assay [7] (Compound concentration: 30 μM, read-out: Antiproliferative activity in cancerous cells, A549).
On to `CC1=C(CC(=O)O)c2c(Cl)cc(Cl)cc2/C1=C\c1ccc(Oc2ccc(F)cc2)cc1` [C87, (Z)-2-(4,6-Dichloro-1-(4-(4-fluorophenoxy)benzylidene)-2-methyl-1H-inden-3-yl)acetic acid], for which the inhibition at 3.3 µM in assay [1] was under 30%; in assay [2], under 30%; in assay [3], at least 50%; in assay [4], under 30%; in assay [5], at least 50%; in assay [6], at least 50%. The inhibition at 3.3 µM in assay [7] is under 30%. In addition, the inhibition at 10 µM in assay [1], in assay [2], in assay [3], in assay [4], in assay [5] and in assay [6] was at least 50% in each case. For the same molecule, the inhibition at 10 µM in assay [7] was at least 50%.
Turning to `COc1ccc(Oc2cccc(/C=C3/C(C)=C(CC(=O)O)c4cc(Cl)ccc43)c2)cc1` [C92, (Z)-2-(5-Chloro-1-(3-(4-methoxyphenoxy)benzylidene)-2-methyl-1H-inden-3-yl)acetic acid], the inhibition at 3.3 µM was at least 50% in assay [1]; at least 50% in assay [2]; at least 50% in assay [3]; at least 50% in assay [4]; under 30% in assay [5]; under 30% in assay [6]. Moreover, the inhibition at 3.3 µM in assay [7] is under 30%. In addition, the inhibition at 10 µM was at least 50% in assay [1]; at least 50% in assay [2]; at least 50% in assay [3]; at least 50% in assay [4]; under 30% in assay [5]; under 30% in assay [6]. The inhibition at 10 µM in assay [7] was at least 50%.
`CC1=C(CC(=O)O)c2cc(Cl)ccc2/C1=C\c1cccc(Oc2ccc(Cl)cc2)c1` [C93, (Z)-2-(5-Chloro-1-(3-(4-chlorophenoxy)benzylidene)-2-methyl-1H-inden-3-yl)acetic acid]: the inhibition at 3.3 µM in assay [1] is at least 50%; in assay [2], under 30%; in assay [3], at least 50%; in assay [4], under 30%; in assay [5], under 30%; in assay [6], at least 50%. Further, the inhibition at 3.3 µM in assay [7] was under 30%. The inhibition at 10 µM in assay [1] is at least 50%; in assay [2], at least 50%; in assay [3] it was at least 50%; in assay [4], 30 to 50%; in assay [5] it was at least 50%; in assay [6], at least 50%. In assay [7], the inhibition at 10 µM was at least 50%. The inhibition at 30 µM in assay [5] was under 30%.

The values above are taken from patent US20260184663A1, “INDENE COMPOUNDS, PHARMACEUTICAL COMPOSITIONS THEREOF, AND THEIR THERAPEUTIC APPLICATIONS” (NucMito Pharmaceuticals co. Ltd., priority 2022, published 2026).
